According to paper PMC8171112 (Bioorganic & medicinal chemistry, 2021):

Experiments:
[1] = target: catalytic domain of TET2 (TET2CD) (Homo sapiens, UniProt Q6N021); assay: ELISA of 5hmC for TET2 activity, cell free; assay type: biochemical; conditions: for potency relative to NOG: cell free ELISA, more potent than NOG (Figure 1)
TET2 [2] = conditions: read-out: IC50 TET2; Figure 3 insert; cited from earlier work
[3] = test system: 16 other α-KG/Fe(II) dependent enzymes; conditions: cited from earlier work
TET2CD = TET2CD (Homo sapiens, UniProt Q6N021); assay: LC-MS/MS analysis to probe TET2CD modification; conditions: TET2CD 10 μM, 2a 100 μM, 2 h, trypsin and chymotrypsin digestion
[4] = test system: TET enzyme (5hmC/5mC) in THP1 cells; assay type: cell-based; conditions: prodrug esters, three concentrations, 12 h
TET1 [5] = conditions: read-out: IC50 TET1; cited from earlier work
wild type (WT)-TET2 = conditions: cited from earlier work
TET2 [6] = conditions: 10 mM, 0.1 mM α-KG; cited from earlier work
TET1 [7] = conditions: 10 mM, 0.1 mM α-KG; cited from earlier work

## C=C(CC(O)C(=O)O)C(=O)O (centres unmarked) [2a, 2-Hydroxy-4-methylenepentanedioic acid]
[1]
  potency relative to NOG: approximately 2 fold
TET2 [2]
  IC50: 9.4 µM
[3]
  inhibition of 16 other α-KG/Fe(II) dependent enzymes: does not inhibit
TET2CD
  covalent modification of +160 Da of TET2CD peptides: did not observed covalent modification of +160 Da of any peptide

## C=C(C[C@@H](O)C(=O)O)C(=O)O [16R, (R)-2-Hydroxy-4-methylenepentanedioic acid]
[1]
  potency relative to NOG: approximately 2 fold

## C=C(C[C@H](O)C(=O)O)C(=O)O [16S, (S)-2-Hydroxy-4-methylenepentanedioic acid]
[1]
  potency relative to NOG: approximately 2 fold

## COC(=O)C(=O)CC(C)C(=O)OC (centres unmarked) [21a]
[4]
  TET inhibition in THP1 cells, dot blot: no inhibition

## Nc1nc(=O)n(-c2cccc(-c3ccccc3)c2)cc1Cl [Bobcat 339]
TET1 [5]
  IC50: 33 µM

## COC(=O)CCC(=O)C(=O)OC [DMKG, dimethyl-2-ketoglutarate, reference compound]
[4]
  TET inhibition in THP1 cells, dot blot: no inhibition

## CC(C)CC(NC(=O)C(=O)O)C(=O)O (centres unmarked) [NOG-5]
Wild type (WT)-TET2
  effect on wild type (WT)-TET2: no effect

## O=C(O)CC[C@H](O)C(=O)O [S-2-HG]
TET2 [6]
  inhibition of TET2 activity: inhibiting most of TET1 and TET2 activity
TET1 [7]
  inhibition of TET1 activity: inhibiting most of TET1 and TET2 activity

## C=C(CC(Cl)C(=O)OC)C(=O)OC (centres unmarked) [compound 9, Dimethyl 2-chloro-4-methylenepentanedioate]
[4]
  TET inhibition in THP1 cells, dot blot: good activity consistent with 1a

## O=C(O)CCC(=O)C(=O)O [α-KG, α-ketoglutarate, reference compound]
[1]; read-out: EC50, TET2CD dioxygenase activity response to α-KG, ELISA, Figure 5A
  EC50: 3.5 µM
